The results in this text go back to patent US20110224205A1 (NATIONAL TAIWAN UNIVERSITY, priority 2010, published 2011).

Read-outs that look alike come from different tables or passages of the source.

One data set deals with A549 cells. The data set is classed as cell-based, human. How it is done:
(§1) A MTT [3-(4,5-dimethylthiazolyl-2)-2,5-diphenyltetrazolium bromide] (Sigma, St Louis, Mo.) assay was performed to determine cell proliferation. Briefly, CL1-5, A549, PC-9, H1650, H1975 and IEC-18 cells were plated in 96-well plates at a density of 5×10^3 cells/well. […] MTT solution to a final concentration in the culture medium 0.5 mg/ml was then added to the wells. After a further 1.5 h of incubation, the medium was removed and DMSO was added to the plates.

The next data set has as its system IEC-18 cells. Briefly: MTT assay, IEC-18 intestinal epithelial cells. The data set is classed as cell-based, rat. As to the method: as §1
(Formazan colour is commonly taken as a measure of viable cells.)

In data set [1] the test system is CL1-5 lung adenocarcinoma xenograft. In words: CL1-5 xenograft tumor growth. The conditions noted are these: control 638.55. The data set is classed as in vivo, SCID mice.
Data set [2] deals with active-p38 in IEC-18 cells. Briefly: Western blot active-p38, IEC-18. It counts as cell-based, rat. Background: In western blotting, separated proteins are transferred to a membrane and probed.
For data set [3], the system named is active-p38 in CL1-5 cells. Briefly: Western blot active-p38, CL1-5. The data set is classed as cell-based, human. Particulars: CL1-5, gefitinib 0-20 μM.
The conditions of data set [4]: SCID, mouse, in vivo, po, 3 weeks.
Data set [5] in a line: Adverse gastrointestinal effects and survival in xenograft study.
The next data set deals with CL1-5 cells. It counts as cell-based, human. How it is done: as §1
For another data set, the system named is H1650 cells. It counts as cell-based, human. How it is done:
as §1

Data set [6] deals with H1975 cells. It counts as cell-based, human. How it is done: as §1
Another data set has as its system H1299 cells. The data set is classed as cell-based, human.
The subject of data set [7] is EGFR, pEGFR, AKT, pAKT in CL1-5 cells. Briefly: Western blot EGFR signaling, CL1-5. It counts as cell-based, human.
In data set [8] the test system is EGFR, pEGFR, AKT, pAKT in A549 cells. In words: Western blot EGFR signaling, A549. The data set is classed as cell-based, human.
For data set [9], the system named is pAKT, cyclin D1 in H1975 cells. Briefly: Western blot EGFR signaling, H1975. Particulars: H1975, curcumin 1-20 μM, EGF 20 ng/ml. The data set is classed as cell-based, human.
For data set [10], the system named is pEGFR, pAKT in H1299 cells. Briefly: Western blot EGFR signaling, H1299. It counts as cell-based, human. The conditions noted are these: gefitinib 1 μM alone, curcumin 10 and 15 μM alone, or gefitinib 1 μM + curcumin 15 μM.
The subject of another data set is EGFR mRNA in CL1-5 cells. Briefly: Real-time quantitative RT-PCR of EGFR. The data set is classed as cell-based, human. Particulars: CL1-5, 1-20 μM, 24 h.
Data set [11] concerns EGFR protein in lung adenocarcinoma cells. In words: EGFR degradation (Western blot) and ubiquitination (immunoprecipitation). Particulars: without MG132. It counts as cell-based.
In data set [12] the test system is H1975 cells. Particulars: 15 μM curcumin without gefitinib.

On to `COc1cc2ncnc(Nc3ccc(F)c(Cl)c3)c2cc1OCCCN1CCOCC1` [gefitinib, N-(3-Chloro-4-fluoro-phenyl)-7-methoxy-6-(3-morpholin-4-ylpropoxy)quinazolin-4-amine], for which, in the data set on A549 cells, the “cell proliferation (FIG. 4A)” value is reported as “slight inhibition of cell proliferation”. For the same compound, the “IC25 for IEC-18 cell” value in the data set with IEC-18 cells (IEC-18) worked out at 30 µM. In the data set with IEC-18 cells (gefitinib 30 and 40 μM, 24 h), the IEC-18 cell survival result was “significantly reduce IEC-18 cell survival”. Further, in data set [1] (gefitinib 120 mg/kg orally once daily), the “average tumor size at the end of the study” value is on record as 138.32 mm^3. Besides, the active-p38 result in [2] (IEC-18, gefitinib 0-20 μM) was “significant increased in a dose dependent manner”. The p38 activation entry in [3] is reported as “did not elevate the p38 activation”. This compound had a survival rate in data set [4] of 33%. Besides, in data set [5], the body weight result is “dramatic body weight lost”; the diarrhea result is “obviously diarrhea side effect”; the “morphology / full length of the intestine” value was “shorter and thinner”.

Consider `CCOC(=O)CC/C(C(=O)/C=C/c1ccc(O)c(OC)c1)=C(O)\C=C\c1ccc(O)c(OC)c1` [JC-15], for which, in the data set on IEC-18 cells, the “protection against gefitinib-induced intestinal cell death (FIG. 10)” value (shortened to “protection”) is “protective effect to reduce gefitinib-induced intestinal cell death”.

As to `COc1cc(/C=C/C(=O)/C=C(O)/C=C/c2ccc(O)c(OC)c2)ccc1O` [curcumin, diferuloylmethane], the “cell proliferation (FIG. 4A)” value in the data set on A549 cells, in the data set on CL1-5 cells, in the data set with H1650 cells, with H1975 cells [6] and with H1299 cells was “slight inhibition of cell proliferation” throughout. The “proliferation (FIG. 1A right)” value with A549 cells (A549, curcumin alone) was “inhibited by curcumin in a concentration-dependent manner”; in the data set on CL1-5 cells (CL1-5, curcumin alone), “inhibited by curcumin in a concentration-dependent manner”; with H1650 cells (H1650, curcumin alone) it was “inhibited by curcumin in a concentration-dependent manner”; with H1975 cells [6] (H1975, curcumin alone), “inhibited by curcumin in a concentration-dependent manner”; with H1299 cells (H1299, curcumin alone) it was “inhibited by curcumin in a concentration-dependent manner”. For the same compound, the “rescue from toxic effect of gefitinib (cell survival)” value with IEC-18 cells is “rescue the cells from this toxic effect of gefitinib”. Also, the “EGFR, pEGFR, AKT, and pAKT protein expression” value is “reduce EGFR, pEGFR, AKT, and pAKT protein expression” in data set [7] (CL1-5, curcumin 1-20 μM, EGF 20 ng/ml); “reduce EGFR, pEGFR, AKT, and pAKT protein expression” in data set [8] (A549, curcumin 1-20 μM, EGF 20 ng/ml). The “pEGFR and pAKT (FIG. 4B)” value in data set [7] (CL1-5, gefitinib 1 μM alone, curcumin 10 and 15 μM alone, or gefitinib 1 μM + curcumin 15 μM) is “minimal suppressive effect”; in data set [8] (A549, gefitinib 1 μM alone, curcumin 10 and 15 μM alone, or gefitinib 1 μM + curcumin 15 μM) it was “minimal suppressive effect”; in data set [10] it was “minimal suppressive effect”. For the same compound, in [9], the AKT phosphorylation result is “not altered”. Further, the “level of cyclin D1” value in data set [9] is reported as “significantly reduced”. The “EGFR mRNA expression” value with EGFR mRNA in CL1-5 cells is on record as “reduce EGFR mRNA expression in a concentration-dependent manner”. Besides, the EGFR protein expression result in data set [11] was “inhibit the EGFR protein expression in a dose-dependent manner”. In addition, the “average tumor size at the end of the study” value in data set [1] (curcumin 1 g/kg orally once daily) came out at 354.91 mm^3. The cells in apoptosis entry with H1975 cells [12] was “about 90%”. In addition, the “levels of EGFR and AKT in the tumors” value in the data set with CL1-5 tumor tissue (Western blot of tumor tissue) was “decreased”. In addition, the “PCNA marker in tumor tissue” value with CL1-5 tumor tissue (immunohistochemical staining) is “decreased”. In addition, in the data set with CL1-5 tumor tissue (in situ cell death detection, vs control (and gefitinib only)), the “cell apoptosis in tumor tissue (TUNEL)” value is “induced cell apoptosis”. In data set [5], the “morphology / full length of the intestine” value is given as “no obvious differences”.

With `Cc1ccc(-n2nc(C(C)(C)C)cc2NC(=O)Nc2ccc(OCCN3CCOCC3)c3ccccc23)cc1` [BIRB 796, reference compound], the “rescue from toxic effect of gefitinib (cell survival)” value in the data set with IEC-18 cells (IEC-18, curcumin 5 μM, BIRB 796 10 nM, gefitinib 30 and 40 μM) is given as “rescue the cells from this toxic effect of gefitinib”. Moreover, the “active-p38 expression on gefitinib-treated cells” value in data set [2] (IEC-18, curcumin 5 μM, BIRB 796 10 nM) is given as “significantly decrease the active-p38 expression”.

In the case of `COc1cc(/C=C/C(=O)C(C(C)=O)C(O)/C=C/c2ccc(O)c(OC)c2)ccc1O` (centres unmarked) [LL68], in the data set on IEC-18 cells, the “protection” value is “protective effect to reduce gefitinib-induced intestinal cell death”.

As for `COc1cc(/C=C/C(O)=C/C(=O)/C=C/c2ccc(O)cc2)ccc1O` [LL-18], the “protection” value in the data set on IEC-18 cells is given as “protective effect to reduce gefitinib-induced intestinal cell death”.
